# System: RBCs from wild-type mice
# Assay: Osmotic water permeability, RBCs from wild-type mice
# Format: cell-based, mouse
# Conditions: inhibitors 25 μM, phloretin 0.7 mM, 10° C.
# Method: FIGS. 8A-B illustrate UT-B-facilitated water transport by ‘chemical UT-B knock-out’. Osmotic water permeability was measured from the time course of RBC volume in response to a 250-mM inwardly directed sucrose gradient. FIG. 8A presents representative traces of mouse RBC water permeability performed at 10° C., with genotypes and conditions indicated. Inhibitors ureainh-201 and ureainh-302 were used at 25 μM. FIG. 8B presents osmotic water permeability coefficients (Pf) from experiments as illustrated in FIG. 8A (±SE, 3-7 curves per group of RBCs pooled from 4 mice per genotype). *, P<0.01 compared with no inhibitor; #, P<0.01 compared with wild-type (no inhibitor).
# RBC urea and water permeabilities were assayed by stopped-flow light scattering using a Hi-Tech Sf-51 instrument (Wiltshire, UK). For measurement of urea permeability, dilutions of whole blood (human or mouse; see Example 1) in PBS (hematocrit: approximately 0.5%) were incubated with test compounds for 5 min and then subjected to a 250-mM inwardly directed gradient of urea. After an initial osmotic shrinking phase, the kinetics of increasing cell volume caused by urea influx were measured as the time-course of 90° scattered light intensity at 530 nm, with increasing cell volume resulting in reduced scattered light intensity. As a positive control, 0.7 mM phloretin was added to the RBC suspension prior to stopped-flow experiments. Measurements of water permeability were carried out similarly, with sucrose (cell-impermeant) used instead of urea to establish a 250-mM osmotic gradient. As a positive control, HgCl2 (0.3 mM) was added to the RBC suspension prior to stopped-flow measurements. Osmotic water permeability coefficients (Pf) were computed from light scattering data as described (van Hoek et al., J Biol Chem. 267:18267-69 (1992)).
# This example describes chemical knock-out of UT-B by UT-B inhibitors in RBCs and the effect on UT-B-facilitated Water transport. […] Osmotic water permeability was measured by stopped-flow light scattering in RBCs from wild-type and AQP1-null mice as shown in FIG. 8A. […] AQP1-null RBCs had greater than 5-fold reduced Pf compared to wild-type RBCs.
row,SMILES,effect on water transport
1,NC(=O)CSc1oc(-c2ccccc2)nc1S(=O)(=O)c1ccc(Br)cc1 [ureainh-101],little effect on water transport
2,Cc1ccc(Nc2nnc(-c3ccc(C(N)=O)cc3)c3ccccc23)cc1 [ureainh-302],little effect on water transport

# Source: patent publication US20110053995A1, “BENZENESULFONANILIDE COMPOUND INHIBITORS OF UREA TRANSPORTERS” (THE REGENTS OF THE UNIVERSITY OF CALIFORNIA, priority 2006, published 2011)
